The values that follow come from patent US9775915B2, “Trioxacarcins, trioxacarcin-antibody conjugates, and uses thereof” (President and Fellows of Harvard College, priority 2012, dated 2017).

Each structure is given as a SMILES string. Entries after “also recorded” stand apart in the source; their conditions may differ.

Series [1] has as its system H460, T-47D, HEK293, N87, MDA-MB-361/DYT2, HT-29, HL-60 and HEL 92.1.7 cells. The experiment in a line: Growth inhibition (GI50) comparison of trioxacarcins, FIG. 10 cell line panel. The following applies: structure-activity comments on FIG. 10. It is filed as cell-based. The protocol: Cell Proliferation Assay. A suspension of H460 cells (3000 cells/well) in growth medium was seeded onto a 96-well plate. The 96-well plate was incubated for 24 h at 37° C. Stock solutions of each compound were diluted serially and the resulting solutions were administrated to cells to achieve final concentrations of 110 pM to 250 nM (trioxacarcin A) or 1.1 nM to 2.5 μM (all other compounds). After incubating at 37° C. for 72 h, 20 μL of resazurin solution (Promega CellTiter-Blue® Cell Viability Assay) was added to each well. After incubating at 37° C. for 2.0 h, the fluorescence (560 nm excitation/590 nm emission) was recorded using a microplate reader (SpectraMax PLUS^384) as a measure of viable cells. Percent growth inhibition was calculated for each well, based upon the following formula: Percent growth inhibition=100×(S−B0)/(Bt−B0); where S is the sample fluorescence, Bt is the average fluorescence for a vehicle-treated population of cells at the completion of the assay, and B0 is the average fluorescence for an untreated population of cells at the beginning of the assay. The average percent inhibition at each concentration was plotted against log(concentration), and a curve fit was generated using a four-parameter logistic equation. GI50 values were computed to reflect the concentrations at which the resulting curves pass through 50% inhibition. […]

The subject of series [2] is lung (LXFL 529L, H-460), mammary (MCF-7), and CNS (SF-268) cancer cell lines. The following applies: human cancer cell lines; Maskey et al. 2004; cited from earlier work.
Series [3] can be described thus: Chemical stability (base, aqueous or alcoholic solvents). The following applies: basic conditions in aqueous or alcoholic solvents. The series is classed as physicochemical.
In series [4] the test system is H460 cells. The experiment in a line: Cell proliferation assay (CellTiter-Blue resazurin), H460 cells. The following applies: 72 h incubation. It is filed as cell-based. (In general: Resazurin is reduced to fluorescent resorufin, in cell work by metabolically active cells.)
Method: H460 cells were purchased from American Type Culture Collection (ATCC).
A suspension of H460 cells (3000 cells/well) in growth medium was seeded onto a 96-well plate. The 96-well plate was incubated for 24 h at 37° C. […] After incubating at 37° C. for 72 h, 20 μL of resazurin solution (Promega CellTiter-Blue® Cell Viability Assay) was added to each well. […] Percent growth inhibition was calculated for each well, based upon the following formula: Percent growth inhibition=100×(S−B0)/(Bt−B0); where S is the sample fluorescence, Bt is the average fluorescence for a vehicle-treated population of cells at the completion of the assay, and B0 is the average fluorescence for an untreated population of cells at the beginning of the assay. The average percent inhibition at each concentration was plotted against log(concentration), and a curve fit was generated using a four-parameter logistic equation.

On to `COc1c2c(c(O)c3c4c(c(C)cc13)[C@@H]1O[C@@]3(C(OC)OC)O[C@@H]1[C@@](O)(O4)[C@@]31CO1)C(=O)[C@@H](O)C[C@@H]2O[C@H]1C[C@@](C)(O)[C@H](OC(C)=O)[C@H](C)O1` [DC-45-A1], for which, in series [1], the “antiproliferative activity (in words, FIG. 10)” value was “highly potent antiproliferative agents”.

As usually defined, the GI50 is the concentration at which growth is held to half of that of the control. As for `COc1c2c(c(O)c3c4c(c(C)cc13)[C@@H]1O[C@@]3(C(OC)OC)O[C@@H]1[C@@](O[C@H]1C[C@@H](O)[C@@](O)(C(C)=O)[C@H](C)O1)(O4)[C@@]31CO1)C(=O)[C@@H](O)C[C@@H]2O[C@H]1C[C@@](C)(O)[C@H](OC(C)=O)[C@H](C)O1` [trioxacarcin A], in series [2], the IC70 entry is recorded as “subnanomolar; also recorded: subnanmolar”. Also, the “stability under basic conditions” value in series [3] was “unstable”. This molecule returned a GI50 in series [4] of 0.85 ± 0.36 nM.
